Five compounds from ChEMBL document CHEMBL1201862, “PubChem BioAssay data set” (2004) can be followed below.

Active and inactive are the calls of the source. Some results are limits rather than exact numbers.

Assay [1] relates to Staphylococcus aureus. The experiment in a line: Inhibitors of Bacterial Quorum Sensing Structure Activity Relationship (SAR) Analysis: Dose Response Assay. [Related pubchem assays: 700, 527 ]. The class given is functional, organism-based.
In assay [2] the target is Genome polyprotein (dengue virus type 2, UniProt P29990). The experiment in a line: Dengue-2 NS5 methyltransferase inhibitors, primary screen, biochemical, confirmation dose response (AID 588689). The format is functional.
Genome polyprotein, sequence (P29990 2492-3391 limits assumed): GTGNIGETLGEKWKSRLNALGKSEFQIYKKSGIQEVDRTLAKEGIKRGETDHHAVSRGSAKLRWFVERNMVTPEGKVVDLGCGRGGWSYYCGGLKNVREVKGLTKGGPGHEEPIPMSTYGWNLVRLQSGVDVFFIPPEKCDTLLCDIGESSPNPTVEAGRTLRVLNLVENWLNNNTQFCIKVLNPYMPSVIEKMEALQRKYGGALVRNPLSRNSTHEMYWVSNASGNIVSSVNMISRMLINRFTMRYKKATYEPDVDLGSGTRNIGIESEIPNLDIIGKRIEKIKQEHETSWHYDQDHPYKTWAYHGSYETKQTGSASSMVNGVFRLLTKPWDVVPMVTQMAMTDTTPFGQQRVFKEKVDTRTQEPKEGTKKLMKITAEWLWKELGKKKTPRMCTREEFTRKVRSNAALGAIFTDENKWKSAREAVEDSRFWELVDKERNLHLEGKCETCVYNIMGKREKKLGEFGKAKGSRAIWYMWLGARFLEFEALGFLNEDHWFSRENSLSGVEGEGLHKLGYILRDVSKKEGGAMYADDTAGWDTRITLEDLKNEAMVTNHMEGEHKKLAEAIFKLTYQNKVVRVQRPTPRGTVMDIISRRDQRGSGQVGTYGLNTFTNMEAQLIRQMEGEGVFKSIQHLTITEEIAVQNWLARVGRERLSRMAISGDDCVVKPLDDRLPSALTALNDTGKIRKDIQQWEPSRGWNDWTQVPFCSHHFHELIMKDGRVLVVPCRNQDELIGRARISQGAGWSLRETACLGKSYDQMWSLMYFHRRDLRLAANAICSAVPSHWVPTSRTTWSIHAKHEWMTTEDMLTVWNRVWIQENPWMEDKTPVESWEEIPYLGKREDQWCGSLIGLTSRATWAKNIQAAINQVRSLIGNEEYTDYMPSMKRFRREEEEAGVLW
Assay [3] in a line: HEp-2 cell cytotoxicity, dose response, cytotoxicity control for RSV inhibitor project, HTS (AID 2410). The class given is functional. As to conditions: human respiratory syncytial virus.
Assay [4] is described as follows: cells.
Assay [5] in a line: Luminescence-based counterscreen assay for KLF5 inhibitors: dose response cell-based high throughput screening assay to identify cytotoxic compounds using the IEC-6 intestinal epithelial cell line. [Related pubchem assays: 1700 (Primary screen.), 1834 (Confirmation screen.), 1858 (Summary AID.), 1905 (Counterscreen.)]. The format is functional. A general note: The purpose of a counterscreen is to sort out artefacts and off-target activity.

Assay [6] concerns the target T1, Microphthalmia-associated transcription factor (Homo sapiens, UniProt O75030).
T1 sequence (O75030 whole entry): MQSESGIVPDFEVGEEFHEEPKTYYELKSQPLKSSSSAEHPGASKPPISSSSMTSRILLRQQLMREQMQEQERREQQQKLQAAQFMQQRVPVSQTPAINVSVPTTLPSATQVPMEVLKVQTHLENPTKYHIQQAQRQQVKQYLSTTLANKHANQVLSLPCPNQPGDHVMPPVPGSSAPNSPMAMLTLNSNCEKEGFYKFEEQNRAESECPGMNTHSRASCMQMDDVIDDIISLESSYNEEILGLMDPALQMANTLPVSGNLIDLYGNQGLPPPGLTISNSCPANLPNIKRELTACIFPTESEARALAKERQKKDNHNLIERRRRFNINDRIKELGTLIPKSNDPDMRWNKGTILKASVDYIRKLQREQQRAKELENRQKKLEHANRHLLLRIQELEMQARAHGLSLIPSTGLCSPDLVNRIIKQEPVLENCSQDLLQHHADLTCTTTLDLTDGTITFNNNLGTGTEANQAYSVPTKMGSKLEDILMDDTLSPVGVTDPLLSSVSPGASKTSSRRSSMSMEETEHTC
Kind of assay: TRPM1 promoter luciferase signal decrease, dose response, MITF inhibitor project, cell-based, SK-MEL-5, cherry-picked, set 3 (AID 493073).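 Further: SK-MEL-5 melanoma cells with luciferase driven by the MITF target TRPM1 promoter.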 The format is functional.

In assay [7] the target is Cytochrome P450 2D6 (Homo sapiens, UniProt P10635). Kind of assay: qHTS Assay for Inhibitors and Substrates of Cytochrome P450 2D6. [Related pubchem assays: 410 ]. The format is ADME. As to conditions: read-out: Potency.
Cytochrome P450 2D6, sequence (P10635 whole entry): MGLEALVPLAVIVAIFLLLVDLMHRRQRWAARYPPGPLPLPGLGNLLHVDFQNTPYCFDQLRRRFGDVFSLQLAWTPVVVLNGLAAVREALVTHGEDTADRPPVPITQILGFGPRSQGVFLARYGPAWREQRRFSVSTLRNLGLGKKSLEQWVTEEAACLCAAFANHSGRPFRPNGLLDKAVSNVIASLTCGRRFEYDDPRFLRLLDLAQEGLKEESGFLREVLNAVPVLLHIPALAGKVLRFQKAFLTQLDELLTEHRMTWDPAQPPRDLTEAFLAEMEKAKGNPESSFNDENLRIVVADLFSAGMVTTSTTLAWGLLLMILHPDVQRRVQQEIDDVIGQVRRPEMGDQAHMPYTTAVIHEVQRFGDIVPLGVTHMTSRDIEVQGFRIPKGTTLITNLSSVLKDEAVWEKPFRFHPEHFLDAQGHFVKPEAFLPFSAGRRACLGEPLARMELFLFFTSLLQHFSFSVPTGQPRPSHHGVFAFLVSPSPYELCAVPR
For assay [8], the target named is Heat shock cognate 71 kDa protein (Homo sapiens, UniProt P11142). Kind of assay: In Vitro Hsc70 Dose Response Fluorescence Polarization Assay. [Related pubchem assays: 1072 ]. In general terms: Polarisation of emitted light reports the rotation of a fluorescent probe.
Heat shock cognate 71 kDa protein, sequence (P11142 whole entry): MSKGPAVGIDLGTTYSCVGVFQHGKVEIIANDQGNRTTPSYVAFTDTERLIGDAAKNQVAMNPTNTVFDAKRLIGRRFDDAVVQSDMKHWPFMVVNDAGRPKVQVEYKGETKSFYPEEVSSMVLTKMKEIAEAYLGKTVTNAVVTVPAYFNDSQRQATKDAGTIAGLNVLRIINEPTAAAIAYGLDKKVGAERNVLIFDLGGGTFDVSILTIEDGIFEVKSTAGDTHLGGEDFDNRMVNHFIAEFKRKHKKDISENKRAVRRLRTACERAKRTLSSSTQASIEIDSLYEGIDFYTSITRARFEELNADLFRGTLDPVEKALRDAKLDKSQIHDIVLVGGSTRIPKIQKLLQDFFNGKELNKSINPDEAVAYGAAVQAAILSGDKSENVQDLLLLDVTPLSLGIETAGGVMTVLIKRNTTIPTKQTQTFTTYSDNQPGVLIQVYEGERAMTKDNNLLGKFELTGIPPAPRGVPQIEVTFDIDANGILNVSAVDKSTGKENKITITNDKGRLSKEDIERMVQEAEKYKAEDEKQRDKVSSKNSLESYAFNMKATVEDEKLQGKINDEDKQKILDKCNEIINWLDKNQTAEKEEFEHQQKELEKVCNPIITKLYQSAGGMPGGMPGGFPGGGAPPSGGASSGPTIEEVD
Assay [9] has as its target Heat shock 70 kDa protein 1A (Homo sapiens, UniProt P0DMV8). Kind of assay: Hsp70 inhibitors, SAR follow-up, biochemical, fluorescence polarization (AID 1072).

Heat shock 70 kDa protein 1A, sequence (P0DMV8 whole entry): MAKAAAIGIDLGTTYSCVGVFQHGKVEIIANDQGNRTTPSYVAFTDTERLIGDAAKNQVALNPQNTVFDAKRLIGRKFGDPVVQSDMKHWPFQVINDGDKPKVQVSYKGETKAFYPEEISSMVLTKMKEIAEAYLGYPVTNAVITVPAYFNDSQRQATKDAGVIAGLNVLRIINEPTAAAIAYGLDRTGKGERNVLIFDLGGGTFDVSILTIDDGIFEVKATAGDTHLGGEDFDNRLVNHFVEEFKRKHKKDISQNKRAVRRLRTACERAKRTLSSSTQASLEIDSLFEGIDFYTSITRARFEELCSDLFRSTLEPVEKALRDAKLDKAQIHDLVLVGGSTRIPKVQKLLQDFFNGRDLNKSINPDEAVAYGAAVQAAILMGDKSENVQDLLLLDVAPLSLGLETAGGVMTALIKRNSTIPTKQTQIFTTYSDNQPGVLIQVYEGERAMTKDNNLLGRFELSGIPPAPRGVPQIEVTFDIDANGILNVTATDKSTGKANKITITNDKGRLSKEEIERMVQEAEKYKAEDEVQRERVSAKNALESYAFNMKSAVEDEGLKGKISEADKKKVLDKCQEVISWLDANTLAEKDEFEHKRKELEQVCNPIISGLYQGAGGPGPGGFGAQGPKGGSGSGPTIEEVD

As a reminder, the IC50 is the concentration that inhibits the measured activity by half. For `CC(C)c1ccc(S(=O)(=O)c2nnn3c2nc(O)c2ccccc23)cc1` [SAVIRIN], the IC50 is 0.25 µM (active) in [1] and 51.5 µM (active) in [2].
For orientation: CC50 means the concentration that lowers cell viability or growth by half. As for `COc1ccc(CCNC(=O)c2ccc(-c3ccc([N+](=O)[O-])cc3Cl)o2)cc1`, the CC50 in [3] was 33.6 µM (active). Also, in assay [4], the IC50 was 25.5 µM (active).
As for `CCCc1ccc(-c2ccc(/C=C/C(=O)O)cc2)nc1`, the IC50 in assay [5] is listed as > 39.8 µM (not active). Further, the AC50 in assay [6] was 0.039 µM (active).
As to `COc1ccc2c(=O)cc(-c3ccc(O)cc3)oc2c1`, in assay [7], the AC50 was 15.8 µM (inconclusive).
As for `O=C(O)C1CCCCC1c1c2ccc(=O)c(O)c-2oc2c(O)c(O)ccc12` (centres undefined), the IC50 in assay [8] is 42.4 µM (active); in assay [9], 9.85 µM (active).
